The record followed here is ChEMBL document CHEMBL1150551, “Novel angiotensin converting enzyme inhibitors containing -hydroxy ketomethylene dipeptide isosteres” (Bioorg Med Chem Lett, 1994).

Structures are written as SMILES. A value given as a limit tells only on which side of the number the result lay.

One experiment concerns the target T1, Angiotensin-converting enzyme (Oryctolagus cuniculus, UniProt P12822).
T1 sequence (P12822 whole entry): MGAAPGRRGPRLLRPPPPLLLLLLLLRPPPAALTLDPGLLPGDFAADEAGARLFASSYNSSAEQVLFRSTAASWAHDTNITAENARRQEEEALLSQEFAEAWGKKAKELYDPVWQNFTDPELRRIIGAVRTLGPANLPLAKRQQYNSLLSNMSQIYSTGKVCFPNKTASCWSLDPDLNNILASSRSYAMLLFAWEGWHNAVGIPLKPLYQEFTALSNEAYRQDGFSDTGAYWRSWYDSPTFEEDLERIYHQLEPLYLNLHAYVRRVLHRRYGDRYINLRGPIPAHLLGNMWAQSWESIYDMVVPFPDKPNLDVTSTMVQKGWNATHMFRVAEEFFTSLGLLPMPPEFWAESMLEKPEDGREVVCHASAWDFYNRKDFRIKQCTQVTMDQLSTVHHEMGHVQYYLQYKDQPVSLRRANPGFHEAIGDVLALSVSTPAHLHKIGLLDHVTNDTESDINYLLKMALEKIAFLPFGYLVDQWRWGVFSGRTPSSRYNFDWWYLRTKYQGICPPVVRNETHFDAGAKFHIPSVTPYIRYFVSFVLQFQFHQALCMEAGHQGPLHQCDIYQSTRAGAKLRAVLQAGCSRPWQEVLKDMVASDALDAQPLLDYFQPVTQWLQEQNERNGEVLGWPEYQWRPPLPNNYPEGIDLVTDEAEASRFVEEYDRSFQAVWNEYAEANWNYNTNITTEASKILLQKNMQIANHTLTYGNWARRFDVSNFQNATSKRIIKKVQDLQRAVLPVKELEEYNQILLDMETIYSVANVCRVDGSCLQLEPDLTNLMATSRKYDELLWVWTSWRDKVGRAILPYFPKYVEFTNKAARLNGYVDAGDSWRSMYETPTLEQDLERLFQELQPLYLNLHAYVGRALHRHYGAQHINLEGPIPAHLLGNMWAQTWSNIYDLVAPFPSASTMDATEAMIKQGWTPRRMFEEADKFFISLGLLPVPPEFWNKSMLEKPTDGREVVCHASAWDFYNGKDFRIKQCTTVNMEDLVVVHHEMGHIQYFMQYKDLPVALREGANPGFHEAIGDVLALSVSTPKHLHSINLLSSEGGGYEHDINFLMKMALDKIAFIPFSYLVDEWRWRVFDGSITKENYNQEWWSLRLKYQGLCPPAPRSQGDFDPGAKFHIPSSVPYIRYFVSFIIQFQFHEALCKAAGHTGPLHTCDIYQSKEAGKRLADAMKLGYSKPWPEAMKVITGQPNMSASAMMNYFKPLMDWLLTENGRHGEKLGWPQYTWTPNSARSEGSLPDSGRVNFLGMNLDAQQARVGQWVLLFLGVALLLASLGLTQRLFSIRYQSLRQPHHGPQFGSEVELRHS
The experiment in a line: Inhibitory concentration against angiotensin converting enzyme (ACE); No activity in experimental concentration range.
As to `O=C(N[C@@H](Cc1ccccc1)C1=NO[C@H](C(=O)N2CCC[C@H]2C(=O)O)C1)c1ccccc1`, the concentration for half-maximal inhibition (IC50) result is listed as “Not Active”.
As to `O=C(N[C@@H](Cc1ccccc1)C1=NO[C@H](C(=O)N2c3ccccc3C[C@H]2C(=O)O)C1)c1ccccc1`, the IC50 entry is on record as “Not Active”.
`O=C(N[C@@H](Cc1ccccc1)C1=NO[C@@H](C(=O)N2CCC[C@H]2C(=O)O)C1)c1ccccc1`: the IC50 entry was “Not Active”.

The target of the next experiment is T1, Angiotensin-converting enzyme. The experiment in a line: Inhibitory concentration against angiotensin converting enzyme (ACE).
`O=C(N[C@@H](Cc1ccccc1)C(=O)C[C@H](O)C(=O)N1CCC[C@H]1C(=O)O)c1ccccc1` had an IC50 of 100 µM.
Compound `O=C(N[C@@H](Cc1ccccc1)C(=O)C[C@H](O)C(=O)N1c2ccccc2C[C@H]1C(=O)O)c1ccccc1` returned a concentration for half-maximal inhibition (IC50) of 5 µM.
`O=C(N[C@@H](Cc1ccccc1)C(=O)C[C@@H](O)C(=O)N1CCC[C@H]1C(=O)O)c1ccccc1` registered an IC50 of 5 µM.
As to `O=C(N[C@@H](Cc1ccccc1)C(=O)C[C@@H](O)C(=O)N1c2ccccc2C[C@H]1C(=O)O)c1ccccc1`, the concentration for half-maximal inhibition (IC50) turned out to be 0.09 µM.
`O=C(N[C@@H](Cc1ccccc1)C1=NO[C@@H](C(=O)N2c3ccccc3C[C@H]2C(=O)O)C1)c1ccccc1`: the 50% inhibitory concentration (IC50) was greater than 1000 µM.
